Key:
Conditions in all cases: Compound concentration 1.0 uM
[1] = target: Insulin receptor (Homo sapiens) (UniProt P06213); assay: IR(h) Eurofins kinase panel
[2] = target: T1, Myosin light chain kinase (Homo sapiens) (UniProt Q32MK0); assay: MLCK(h) Eurofins kinase panel
T1 sequence (whole entry): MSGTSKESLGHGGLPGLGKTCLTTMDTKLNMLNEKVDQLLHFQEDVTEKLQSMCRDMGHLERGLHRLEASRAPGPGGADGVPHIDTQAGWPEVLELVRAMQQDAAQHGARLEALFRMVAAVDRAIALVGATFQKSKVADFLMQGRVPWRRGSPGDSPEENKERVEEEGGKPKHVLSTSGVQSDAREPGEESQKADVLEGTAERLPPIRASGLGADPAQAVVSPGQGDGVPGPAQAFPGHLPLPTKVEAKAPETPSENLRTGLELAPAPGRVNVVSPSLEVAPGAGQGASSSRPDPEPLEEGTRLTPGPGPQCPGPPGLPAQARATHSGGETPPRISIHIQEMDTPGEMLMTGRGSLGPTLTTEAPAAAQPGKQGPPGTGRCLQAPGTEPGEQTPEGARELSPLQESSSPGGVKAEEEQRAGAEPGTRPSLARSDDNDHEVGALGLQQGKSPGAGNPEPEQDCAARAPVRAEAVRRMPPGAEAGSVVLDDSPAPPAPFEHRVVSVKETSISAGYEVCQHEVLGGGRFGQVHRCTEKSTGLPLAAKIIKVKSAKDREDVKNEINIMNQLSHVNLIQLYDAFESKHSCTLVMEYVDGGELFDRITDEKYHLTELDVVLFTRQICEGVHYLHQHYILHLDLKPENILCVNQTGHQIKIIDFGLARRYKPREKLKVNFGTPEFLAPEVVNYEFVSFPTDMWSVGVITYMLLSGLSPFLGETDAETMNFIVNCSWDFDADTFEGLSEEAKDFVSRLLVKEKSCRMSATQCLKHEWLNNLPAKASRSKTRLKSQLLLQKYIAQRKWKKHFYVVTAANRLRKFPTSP

[3] = target: T2, Testis-specific serine/threonine-protein kinase 3 (Homo sapiens) (UniProt Q96PN8); assay: TSSK3(h) Eurofins kinase panel
T2 sequence (whole entry): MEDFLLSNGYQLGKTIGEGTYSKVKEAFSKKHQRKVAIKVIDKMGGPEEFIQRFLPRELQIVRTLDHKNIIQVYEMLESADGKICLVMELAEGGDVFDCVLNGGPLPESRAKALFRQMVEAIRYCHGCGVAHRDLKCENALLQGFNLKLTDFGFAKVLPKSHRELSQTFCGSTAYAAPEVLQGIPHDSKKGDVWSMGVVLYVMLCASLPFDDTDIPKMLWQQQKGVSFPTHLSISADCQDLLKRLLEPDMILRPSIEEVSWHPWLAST

[4] = target: Mitogen-activated protein kinase 14 (Homo sapiens) (UniProt Q16539); assay: SAPK2a(h) Eurofins kinase panel
[5] = target: T3, cAMP-dependent protein kinase catalytic subunit PRKX (Homo sapiens) (UniProt P51817); assay: PrKX(h) Eurofins kinase panel
T3 sequence (whole entry): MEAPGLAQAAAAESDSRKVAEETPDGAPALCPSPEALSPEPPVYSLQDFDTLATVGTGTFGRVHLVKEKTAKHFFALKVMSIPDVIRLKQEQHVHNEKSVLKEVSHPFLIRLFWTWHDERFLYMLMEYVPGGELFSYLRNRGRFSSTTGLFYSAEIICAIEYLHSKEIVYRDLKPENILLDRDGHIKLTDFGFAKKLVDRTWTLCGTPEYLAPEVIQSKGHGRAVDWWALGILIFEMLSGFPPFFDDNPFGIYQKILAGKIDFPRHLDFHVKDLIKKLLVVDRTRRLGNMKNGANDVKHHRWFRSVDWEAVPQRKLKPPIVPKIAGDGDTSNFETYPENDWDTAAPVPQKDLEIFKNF

[6] = target: T4, cGMP-dependent protein kinase 1 (Homo sapiens) (UniProt Q13976); assay: PKG1alpha (h) Eurofins kinase panel
T4 sequence (whole entry): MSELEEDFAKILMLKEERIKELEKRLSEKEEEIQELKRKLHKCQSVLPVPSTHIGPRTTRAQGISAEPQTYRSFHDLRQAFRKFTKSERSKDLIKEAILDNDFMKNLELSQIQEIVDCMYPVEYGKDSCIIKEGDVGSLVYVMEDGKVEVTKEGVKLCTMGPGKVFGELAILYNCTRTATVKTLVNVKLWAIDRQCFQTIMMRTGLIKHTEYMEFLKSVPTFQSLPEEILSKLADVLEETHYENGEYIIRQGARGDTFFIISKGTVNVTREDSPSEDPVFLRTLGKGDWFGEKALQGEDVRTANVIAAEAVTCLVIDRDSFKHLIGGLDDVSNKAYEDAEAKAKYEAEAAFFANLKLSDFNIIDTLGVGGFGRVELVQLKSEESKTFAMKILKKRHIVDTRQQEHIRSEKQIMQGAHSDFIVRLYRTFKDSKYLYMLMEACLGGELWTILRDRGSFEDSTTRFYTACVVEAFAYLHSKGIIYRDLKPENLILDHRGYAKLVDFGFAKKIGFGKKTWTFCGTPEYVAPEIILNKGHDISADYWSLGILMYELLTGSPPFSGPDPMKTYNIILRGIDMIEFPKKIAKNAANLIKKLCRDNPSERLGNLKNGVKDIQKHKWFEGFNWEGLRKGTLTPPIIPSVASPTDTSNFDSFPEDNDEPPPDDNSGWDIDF

Measured: % residual kinase activity

Chain of Insulin receptor (Homo sapiens) (P06213 28-758 limits assumed): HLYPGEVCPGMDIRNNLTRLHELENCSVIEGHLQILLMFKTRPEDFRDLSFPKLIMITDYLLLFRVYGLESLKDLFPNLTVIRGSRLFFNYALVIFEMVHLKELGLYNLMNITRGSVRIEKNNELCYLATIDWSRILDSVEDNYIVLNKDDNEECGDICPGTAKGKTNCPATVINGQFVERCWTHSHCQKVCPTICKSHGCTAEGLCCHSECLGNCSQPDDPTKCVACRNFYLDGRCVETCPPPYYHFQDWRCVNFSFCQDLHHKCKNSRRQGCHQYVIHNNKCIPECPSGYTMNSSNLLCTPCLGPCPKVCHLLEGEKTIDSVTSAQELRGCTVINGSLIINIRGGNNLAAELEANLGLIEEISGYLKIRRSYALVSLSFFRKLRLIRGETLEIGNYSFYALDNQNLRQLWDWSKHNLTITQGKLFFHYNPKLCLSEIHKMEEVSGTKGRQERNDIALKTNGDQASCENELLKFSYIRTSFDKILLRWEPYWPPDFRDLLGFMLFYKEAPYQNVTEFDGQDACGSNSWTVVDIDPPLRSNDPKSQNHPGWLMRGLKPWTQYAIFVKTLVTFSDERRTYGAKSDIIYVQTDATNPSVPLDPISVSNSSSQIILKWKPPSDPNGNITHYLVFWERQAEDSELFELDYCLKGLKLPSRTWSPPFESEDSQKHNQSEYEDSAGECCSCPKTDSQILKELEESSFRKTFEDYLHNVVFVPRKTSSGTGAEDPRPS
Chain of Insulin receptor (Homo sapiens) (P06213 763-1382 limits assumed): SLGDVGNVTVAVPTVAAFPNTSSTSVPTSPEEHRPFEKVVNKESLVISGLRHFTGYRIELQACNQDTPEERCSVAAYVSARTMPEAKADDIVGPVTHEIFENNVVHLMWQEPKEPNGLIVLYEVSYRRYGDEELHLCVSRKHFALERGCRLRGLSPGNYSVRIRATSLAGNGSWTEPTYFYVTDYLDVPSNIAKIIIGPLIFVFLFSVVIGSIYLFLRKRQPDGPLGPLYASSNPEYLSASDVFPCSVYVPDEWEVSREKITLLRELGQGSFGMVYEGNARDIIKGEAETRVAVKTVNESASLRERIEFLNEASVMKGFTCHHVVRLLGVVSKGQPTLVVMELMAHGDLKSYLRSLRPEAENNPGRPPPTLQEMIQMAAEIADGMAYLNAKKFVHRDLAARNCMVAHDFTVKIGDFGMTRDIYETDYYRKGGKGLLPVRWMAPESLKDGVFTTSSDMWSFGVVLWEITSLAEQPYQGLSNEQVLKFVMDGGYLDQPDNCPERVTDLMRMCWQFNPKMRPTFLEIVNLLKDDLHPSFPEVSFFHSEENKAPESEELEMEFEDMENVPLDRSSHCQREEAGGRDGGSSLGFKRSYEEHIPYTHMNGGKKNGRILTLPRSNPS
Chain of Mitogen-activated protein kinase 14 (Homo sapiens) (Q16539 whole entry): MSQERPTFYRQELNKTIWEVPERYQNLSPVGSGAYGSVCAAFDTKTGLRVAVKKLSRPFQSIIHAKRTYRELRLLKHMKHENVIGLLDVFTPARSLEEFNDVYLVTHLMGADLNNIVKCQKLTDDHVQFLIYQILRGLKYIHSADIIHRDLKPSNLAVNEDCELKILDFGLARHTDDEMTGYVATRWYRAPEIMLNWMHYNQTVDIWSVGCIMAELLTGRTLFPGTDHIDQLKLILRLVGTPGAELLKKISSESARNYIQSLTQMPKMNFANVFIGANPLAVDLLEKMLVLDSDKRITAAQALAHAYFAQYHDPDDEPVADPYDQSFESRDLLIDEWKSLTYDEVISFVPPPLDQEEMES

CCc1ccccc1C(=O)Nc1n[nH]c2c(C)c(F)c(C3C(C#N)=C(C)N(C)C(C)=C3C#N)cc12 [BAY-3827]
inactive: [1] 115% | [2] 32% | [3] 110% | [4] 101% | [5] 94% | [6] 68%
